In the NIST ThermoML archive (doi:10.1016/j.jct.2015.10.018):
± gives the expanded uncertainty stated by the source.

Experiments:
[1] = 298.15 K; 101.33 kPa; Liquid; Vibrating tube method
[2] = refractive index (Na D-line) (dimensionless); conditions: 298.15 K; 101.33 kPa; Liquid; Standard Abbe refractometry

| mass density [1] | refractive index [2] | Structure (SMILES) |
| --- | --- | --- |
| 1102.03 ± 1.1 kg/m3 | 1.51452 ± 0.00051 | CCn1cc[n+](C)c1.N#CN=C=[N-] [1-ethyl-3-methylimidazolium dicyanamide] |
| 679.57 ± 0.25 kg/m3 | 1.38529 ± 0.00037 | CCCCCCC [heptane] |
| 773.88 ± 0.17 kg/m3 | 1.42356 ± 0.00033 | C1CCCCC1 [cyclohexane] |

| Structure (SMILES) | mass density [1] | refractive index [2] |
| --- | --- | --- |
| Cc1ccccc1 [toluene] | 862.23 ± 0.13 kg/m3 | 1.49398 ± 0.00031 |
